# Measured values as given in patent US6153604A, “Therapeutic substituted guanidines” (Cambridge NeuroScience, Inc., priority 1995, dated 2000).
# Structures can show the parent of a compound that is named as a salt.
# Assays:
# [1] = system: NMDA-induced excitotoxic damage to the central nervous system; experiment: In vivo assay for protection against NMDA-induced excitotoxic damage to the central nervous system; design: species or system rat (Day 7 neonatal); conditions: Rattus norvegicus, ip, 120 h, intraperitoneal; for ED80: 15 minutes after intrastriatal NMDA, neonatal rats, read-out: ED80 (dose that provides 80% of the maximum protection)
# Experimental: In vivo assay for protection against NMDA-induced excitotoxic damage to the central nervous system.
# The in vivo potency of compounds of the present invention is exemplified by data summarized in Table II and obtained pursuant to the following protocol. Day 7 neonatal rats were anesthetized with metophane inhalation anesthetic for 4-6 minutes, inserted into a stereotaxic apparatus and injected intrastriatally with 0.5 μl of 50 mM NMDA (N-methyl-D-aspartate). 15 minutes after the NMDA injection, the rat pups were injected intraperitoneally with 10, 30 or 60 μmol/kg of the NMDA antagonist of the structure specified in Table II Animals were returned to their mother and watched for signs of distress (e.g., respiratory depression). After five days, the animals were anesthetized with CO2 and then decapitated; their brains were removed and weighed to determine the degree of neuroprotection. Because NMDA injection results in a retardation of brain growth (including necrosis), effects can be measured gravimetrically in terms of the weights of injected and non-injected hemispheres. Two groups of rat pups were used at each of three doses of a compound to generate a neuroprotection dose-response curve. The chemical structure of each of the tested compounds is specified below with the general formula of the compounds shown at the top of Table II with particular substituent groups specified within that Table. Table II discloses 1) the ED80 for each tested compound, i.e., the dose of a compound that provides 80% of the maximum protection against damage to the central nervous system; and 2) the percent (%) maximum protection against damage to the central nervous system provided by the indicated dose expressed as μmol per kilogram bodyweight of the test subject.
# [2] = system: rat model of Korsakoff's disease; conditions: pretreatment of animals; cited from earlier work
SMILES,"inhibition in vivo at 60 µmol/kg ([1]; dose 60 μmol/kg, read-out: % maximum protection per dose) [%]",ED80 [1] [µmol/kg],"inhibition in vivo at 30 µmol/kg ([1]; dose 30 μmol/kg, read-out: % maximum protection per dose) [%]","extent of cell loss, hemorrhages and amino acid changes [2]"
"Cc1ccc(Cl)c(NC(=N)Nc2cccc3ccccc23)c1 [Cmpd. No. 10 (Table II), N-(1-Naphthyl)-N'(2-chloro-5-methylphenyl)guanidine hydrochloride]",96.4,45.8,–,–
"CCc1ccc(Cl)c(NC(=N)Nc2cccc3cccnc23)c1 [Cmpd. No. 11 (Table II), N-(8-Quinolinyl)-N'-(2-chloro-5-ethylphenyl)guanidine hydrochloride]",–,14.2,94.5,–
"C[C@]12N[C@H](Cc3ccccc31)c1ccccc12 [MK-801, (+)-5-methyl-10,11-dihydro-5H-dibenzo[a,d]cycloheptene-5,10-imine]",–,–,–,"markedly attenuates the extent of cell loss, hemorrhages and amino acid changes"
